Assays:
[1] = target: T1, JAK3 (Homo sapiens, UniProt P52333); assay: JAK3 Inhibition Assay; assay type: biochemical; conditions: 1 nM JAK3, 1 μM poly(Glu)4Tyr, 5 μM ATP, 25° C., 33P incorporation
T1 sequence (P52333 1-1124): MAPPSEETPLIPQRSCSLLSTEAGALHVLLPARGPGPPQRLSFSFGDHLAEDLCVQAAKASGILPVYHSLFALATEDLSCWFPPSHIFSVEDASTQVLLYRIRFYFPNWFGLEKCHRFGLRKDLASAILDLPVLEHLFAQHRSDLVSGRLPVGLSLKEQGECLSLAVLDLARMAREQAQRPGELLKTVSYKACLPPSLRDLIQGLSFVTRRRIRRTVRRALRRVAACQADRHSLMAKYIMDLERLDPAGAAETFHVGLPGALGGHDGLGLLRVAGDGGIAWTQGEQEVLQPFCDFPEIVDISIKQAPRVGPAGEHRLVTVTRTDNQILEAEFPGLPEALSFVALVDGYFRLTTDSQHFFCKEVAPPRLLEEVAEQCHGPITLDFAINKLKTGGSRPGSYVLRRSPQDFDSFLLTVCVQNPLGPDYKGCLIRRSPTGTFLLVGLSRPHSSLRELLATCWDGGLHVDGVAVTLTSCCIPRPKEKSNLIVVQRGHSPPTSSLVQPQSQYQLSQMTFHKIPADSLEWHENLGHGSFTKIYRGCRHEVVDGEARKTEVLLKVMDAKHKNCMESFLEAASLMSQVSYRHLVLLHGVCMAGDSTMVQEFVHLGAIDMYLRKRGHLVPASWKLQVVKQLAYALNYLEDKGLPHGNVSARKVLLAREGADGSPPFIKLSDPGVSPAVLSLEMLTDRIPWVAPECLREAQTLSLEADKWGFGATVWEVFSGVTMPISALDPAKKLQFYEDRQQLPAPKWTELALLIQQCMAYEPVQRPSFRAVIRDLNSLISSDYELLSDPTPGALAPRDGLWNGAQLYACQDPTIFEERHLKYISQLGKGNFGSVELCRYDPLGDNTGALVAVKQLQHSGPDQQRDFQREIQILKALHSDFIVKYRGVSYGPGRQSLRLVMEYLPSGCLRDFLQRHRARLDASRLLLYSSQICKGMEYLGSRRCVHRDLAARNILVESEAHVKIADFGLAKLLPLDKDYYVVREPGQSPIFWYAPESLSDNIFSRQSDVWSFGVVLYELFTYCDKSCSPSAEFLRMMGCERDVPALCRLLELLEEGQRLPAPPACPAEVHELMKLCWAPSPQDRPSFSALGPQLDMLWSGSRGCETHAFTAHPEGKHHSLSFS

[2] = target: JAK-2 enzyme (Homo sapiens, UniProt O60674); assay: JAK2 Inhibition Assay
Chain of JAK-2 enzyme (O60674 whole entry): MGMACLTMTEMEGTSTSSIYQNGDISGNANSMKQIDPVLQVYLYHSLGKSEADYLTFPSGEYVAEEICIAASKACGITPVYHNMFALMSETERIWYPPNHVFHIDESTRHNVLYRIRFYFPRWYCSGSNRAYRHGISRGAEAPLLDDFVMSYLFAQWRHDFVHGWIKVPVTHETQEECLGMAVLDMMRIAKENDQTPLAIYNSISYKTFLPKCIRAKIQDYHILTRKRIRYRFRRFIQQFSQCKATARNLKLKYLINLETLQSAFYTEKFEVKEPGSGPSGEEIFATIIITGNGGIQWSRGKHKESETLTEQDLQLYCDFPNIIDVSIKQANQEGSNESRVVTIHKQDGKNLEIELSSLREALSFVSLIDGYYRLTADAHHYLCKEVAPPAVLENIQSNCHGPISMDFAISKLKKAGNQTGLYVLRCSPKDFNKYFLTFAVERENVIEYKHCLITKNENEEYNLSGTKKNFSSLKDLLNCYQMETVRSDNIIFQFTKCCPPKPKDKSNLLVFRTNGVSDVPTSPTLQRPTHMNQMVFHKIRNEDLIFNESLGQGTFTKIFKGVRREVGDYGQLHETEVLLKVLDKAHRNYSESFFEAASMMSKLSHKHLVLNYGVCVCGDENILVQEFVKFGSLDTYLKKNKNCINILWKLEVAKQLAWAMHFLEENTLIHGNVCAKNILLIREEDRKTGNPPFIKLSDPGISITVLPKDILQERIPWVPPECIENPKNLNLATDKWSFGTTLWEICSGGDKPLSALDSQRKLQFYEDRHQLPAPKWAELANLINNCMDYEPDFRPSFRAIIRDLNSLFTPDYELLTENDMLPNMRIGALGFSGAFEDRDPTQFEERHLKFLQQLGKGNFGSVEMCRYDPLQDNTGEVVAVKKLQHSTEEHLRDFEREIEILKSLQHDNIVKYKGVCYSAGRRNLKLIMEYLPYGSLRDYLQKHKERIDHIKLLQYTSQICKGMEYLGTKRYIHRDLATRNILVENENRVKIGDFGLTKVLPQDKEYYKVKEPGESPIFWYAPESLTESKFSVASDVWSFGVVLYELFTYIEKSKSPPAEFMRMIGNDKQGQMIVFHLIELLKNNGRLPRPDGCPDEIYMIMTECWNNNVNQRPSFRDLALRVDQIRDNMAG
Experimental: Reactions were carried out in a kinase buffer containing 100 mM HEPES (pH 7.4), 1 mM DTT, 10 mM MgCl2, 25 mM NaCl, and 0.01% BSA. Substrate concentrations in the assay were 5 μM ATP (200 uCi/μmole ATP) and 1 μM poly(Glu)4Tyr. Reactions were carried out at 25° C. and 1 nM JAK3.
To each well of a 96 well polycarbonate plate was added 1.5 μl of a candidate JAK3 inhibitor along with 50 μl of kinase buffer containing 2 μM poly(Glu)4Tyr and 10 μM ATP. This was then mixed and 50 μl of kinase buffer containing 2 nM JAK3 enzyme was added to start the reaction. After 20 minutes at room temperature (25° C.), the reaction was stopped with 50 μl of 20% trichloroacetic acid (TCA) that also contained 0.4 mM ATP. The entire contents of each well were then transferred to a 96 well glass fiber filter plate using a TomTek Cell Harvester. After washing, 60 μl of scintillation fluid was added and ^33P incorporation detected on a Perkin Elmer TopCount.

Row | Ki [1] [nM] | Ki [2] [nM] | Structure (SMILES)
1 | 10 to 100 | < 10 | COc1ccccc1CNc1cc(-c2c(N)nn3cccnc23)ncn1 [Compound 5]
2 | 10 to 100 | < 10 | Cc1ccccc1CNc1cc(-c2c(N)nn3cccnc23)ncn1 [Compound 11]
3 | 10 to 100 | < 10 | Nc1nn2cccnc2c1-c1cc(NCc2ccccc2OC(F)(F)F)ncn1 [Compound 14]
4 | 100 to 500 | 10 to 100 | C[C@@H](c1ccccc1)N(C)c1cc(-c2c(N)nn3cccnc23)ncn1 [Compound 19]
5 | 100 to 500 | 10 to 100 | C[C@H](c1ccccc1)N(C)c1cc(-c2c(N)nn3cccnc23)ncn1 [Compound 20]
6 | 10 to 100 | 10 to 100 | Nc1nn2cccnc2c1-c1cc(NCc2ccco2)ncn1 [Compound 24]
7 | 100 to 500 | 10 to 100 | Cc1ccc(CNc2cc(-c3c(N)nn4cccnc34)ncn2)o1 [Compound 26]
8 | 100 to 500 | 10 to 100 | Nc1nn2cccnc2c1-c1cc(N2Cc3ccccc3C2)ncn1 [Compound 27]
9 | 100 to 500 | 10 to 100 | Nc1nn2cccnc2c1-c1cc(NCc2csc3ccccc23)ncn1 [Compound 31]
10 | 10 to 100 | 10 to 100 | CN(Cc1cccnc1)c1cc(-c2c(N)nn3cccnc23)ncn1 [Compound 33]
11 | 100 to 500 | 100 to 500 | COc1cc2c(cc1OC)CN(c1cc(-c3c(N)nn4cccnc34)ncn1)CC2 [Compound 35]
12 | 10 to 100 | < 10 | Nc1nn2cccnc2c1-c1cc(NCc2ccsc2Br)ncn1 [Compound 36]
13 | 100 to 500 | 10 to 100 | Nc1nn2cccnc2c1-c1cc(N2CCc3ccccc3C2)ncn1 [Compound 42]
14 | 100 to 500 | 10 to 100 | Nc1nn2cccnc2c1-c1cc(NCc2cc(C(F)(F)F)ccc2F)ncn1 [Compound 45]
15 | 10 to 100 | < 10 | Nc1nn2cccnc2c1-c1cc(NCc2ccc(C(F)(F)F)cc2F)ncn1 [Compound 46]
16 | 10 to 100 | < 10 | Nc1nn2cccnc2c1-c1cc(N2CCCC2c2ccccc2)ncn1 (stereo not drawn) [Compound 57]
17 | 10 to 100 | < 10 | CC[C@H](Nc1cc(-c2c(N)nn3cccnc23)ncn1)c1ccc(F)c(F)c1 [Compound 62]
18 | 100 to 500 | < 10 | CCC1c2ccccc2CCN1c1cc(-c2c(N)nn3cccnc23)ncn1 (stereo not drawn) [Compound 64]
19 | 10 to 100 | < 10 | CCC(Oc1cc(-c2c(N)nn3cccnc23)ncn1)c1ccccc1 (stereo not drawn) [Compound 65]

Row | Ki [1] [nM] | Ki [2] [nM] | Structure (SMILES)
20 | > 5000 | 500 to 5000 | Nc1nn2cccnc2c1-c1cc(OC(c2ccccc2)C2CC2)ncn1 (stereo not drawn) [Compound 66]
21 | 100 to 500 | 10 to 100 | C[C@@H](Oc1cc(-c2c(N)nn3cccnc23)ncn1)c1ccccc1 [Compound 67]
22 | 10 to 100 | < 10 | C[C@H](Oc1cc(-c2c(N)nn3cccnc23)ncn1)c1ccccc1 [Compound 68]
23 | 100 to 500 | 10 to 100 | Nc1nn2cccnc2c1-c1cc(O[C@H](c2ccccc2)C(F)(F)F)ncn1 [Compound 69]
24 | 500 to 5000 | 100 to 500 | Nc1nn2cccnc2c1-c1cc(O[C@@H](c2ccccc2)C(F)(F)F)ncn1 [Compound 70]
25 | 10 to 100 | < 10 | CC(Oc1cc(-c2c(N)nn3cccnc23)ncn1)c1ccc(F)cc1 (stereo not drawn) [Compound 71]
26 | > 5000 | 100 to 500 | Nc1nn2cccnc2c1-c1cc(OCc2ccc(C(F)(F)F)cc2)ncn1 [Compound 72]
27 | 100 to 500 | 10 to 100 | Nc1nn2cccnc2c1-c1cc(N[C@H]2CCCc3ccccc32)ncn1 [Compound 76]
28 | 100 to 500 | 10 to 100 | Nc1nn2cccnc2c1-c1cc(N[C@@H]2CCCc3ccccc32)ncn1 [Compound 79]
29 | 10 to 100 | < 10 | C[C@H](Nc1cc(-c2c(N)nn3cccnc23)ncn1)c1ccc(F)cc1Cl [Compound 80]
30 | 10 to 100 | < 10 | C[C@H](Nc1cc(-c2c(N)nn3cccnc23)ncn1)c1ccc(Cl)cc1F [Compound 81]
31 | 10 to 100 | < 10 | CC[C@H](Nc1cc(-c2c(N)nn3cccnc23)ncn1)c1ccc(F)cc1Cl [Compound 82]
32 | 100 to 500 | < 10 | CC[C@H](Nc1cc(-c2c(N)nn3cccnc23)ncn1)c1ccc(Cl)cc1F [Compound 83]
33 | 10 to 100 | < 10 | CC[C@@H](Nc1cc(-c2c(N)nn3cccnc23)ncn1)c1ccc(F)cc1F [Compound 88]
34 | 10 to 100 | < 10 | Nc1nn2cccnc2c1-c1cc(NC2(c3ccc(F)cc3)CC2)ncn1 [Compound 90]
35 | 10 to 100 | < 10 | C[C@H](Nc1cc(-c2c(N)nn3cccnc23)nc(C2CC2)n1)c1ccc(F)cc1 [Compound 91]
36 | 10 to 100 | < 10 | CSc1nc(N[C@@H](C)c2ccc(F)cc2)cc(-c2c(N)nn3cccnc23)n1 [Compound 92]
37 | 10 to 100 | < 10 | CC[C@H](Nc1cc(-c2c(N)nn3ccc(C)nc23)ncn1)c1ccc(F)c(F)c1 [Compound 94]
38 | 10 to 100 | < 10 | Cc1ccn2nc(N)c(-c3cc(N[C@@H](C)c4ccc(F)cc4)ncn3)c2n1 [Compound 95]

Row | Ki [1] [nM] | Ki [2] [nM] | Structure (SMILES)
39 | 10 to 100 | < 10 | C[C@H](Nc1cc(-c2c(N)nn3cccnc23)nc(N2CCOCC2)n1)c1ccc(F)cc1 [Compound 96]
40 | 100 to 500 | 10 to 100 | CCC[C@@H](Nc1cc(-c2c(N)nn3cccnc23)ncn1)c1ccc(F)c(F)c1 [Compound 97]
41 | 10 to 100 | < 10 | CCC[C@H](Nc1cc(-c2c(N)nn3cccnc23)ncn1)c1ccc(F)c(F)c1 [Compound 98]
42 | 10 to 100 | < 10 | CCN(CC)CCOc1nc(N[C@@H](C)c2ccc(F)cc2)cc(-c2c(N)nn3cccnc23)n1 [Compound 99]
43 | < 10 | < 10 | C[C@H](Nc1cc(-c2c(N)nn3cccnc23)nc(S(C)(=O)=O)n1)c1ccc(F)cc1 [Compound 100]
44 | 100 to 500 | 10 to 100 | Nc1nn2cccnc2c1-c1cc(N[C@@H](CCO)c2ccccc2)nc(N2CCOCC2)n1 [Compound 102]
45 | 100 to 500 | 10 to 100 | CCC[C@H](Nc1cc(-c2c(N)nn3cccnc23)nc(N2CCOCC2)n1)c1ccc(F)cc1 [Compound 103]
46 | 500 to 5000 | 100 to 500 | CC(C)[C@@H](Nc1cc(-c2c(N)nn3cccnc23)nc(N2CCOCC2)n1)c1ccc(F)cc1F [Compound 104]
47 | 10 to 100 | < 10 | C[C@H](Nc1cc(-c2c(N)nn3cc(F)cnc23)ncn1)c1ccc(F)cc1F [Compound 105]
48 | 10 to 100 | < 10 | C[C@H](Nc1cc(-c2c(N)nn3cccnc23)nc(N2CCOCC2)n1)c1ccc(F)cc1F [Compound 106]
49 | 100 to 500 | 10 to 100 | CCC[C@H](Nc1cc(-c2c(N)nn3cccnc23)nc(N2CCOCC2)n1)c1ccc(F)cc1F [Compound 107]
50 | 10 to 100 | < 10 | COCCOc1nc(N[C@@H](C)c2ccc(F)cc2)cc(-c2c(N)nn3cccnc23)n1 [Compound 108]
51 | 10 to 100 | < 10 | C[C@H](Nc1cc(-c2c(N)nn3cccnc23)nc(OCCN2CCOCC2)n1)c1ccc(F)cc1 [Compound 109]
52 | 10 to 100 | < 10 | CCC[C@H](Nc1cc(-c2c(N)nn3cccnc23)nc(S(C)(=O)=O)n1)c1ccc(F)cc1 [Compound 110]
53 | < 10 | < 10 | C[C@H](Nc1cc(-c2c(N)nn3cccnc23)nc(S(C)(=O)=O)n1)c1ccc(F)cc1F [Compound 111]
54 | 10 to 100 | < 10 | CCC[C@H](Nc1cc(-c2c(N)nn3cccnc23)nc(S(C)(=O)=O)n1)c1ccc(F)cc1F [Compound 112]
55 | 500 to 5000 | 100 to 500 | CC(C)[C@@H](Nc1cc(-c2c(N)nn3cccnc23)nc(S(C)(=O)=O)n1)c1ccc(F)cc1F [Compound 113]
56 | 10 to 100 | < 10 | C[C@H](Nc1cc(-c2cnn3cccnc23)ncn1)c1ccc(F)cc1 [Compound 114]
57 | 10 to 100 | 10 to 100 | OCC[C@H](Nc1cc(-c2cnn3cccnc23)ncn1)c1ccccc1 [Compound 115]
